Laboratory results taken from the supplement of paper PMC10307832.

Legend:
Experiment in all cases: relative viability (nuclei count vs DMSO), 5 days (fraction); higher = more cells survive
Vandetanib = compound: COc1cc2/c(=N/c3ccc(Br)cc3F)nc[nH]c2cc1OCC1CCN(C)CC1 [Vandetanib]
How it was run: (§1)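 MetaXpress counted nuclei in 4× images of lung cancer cell lines that had been fixed, permeabilised and Hoechst-stained in one step. Before that, cells in 1536-well plates were kept overnight at 37 °C, pinned with five √10-spaced library-drug doses on vehicle-anchored plates, and cultured 5 days without medium change. Viability takes treated-well nuclei over vehicle-well nuclei and uses the median across plates. Plates were accepted only at control CV below 25% and at least one doubling.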

[1] = compound: C1=CC=C2C(=C1)N=C(S2)C(C#N)C3=NC(=NC=C3)NCCC4=CN=CC=C4
How it was run: as §1

NVP-TAE684 = compound: COc1cc(N2CCC(N3CCN(C)CC3)CC2)ccc1Nc1ncc(Cl)c(Nc2ccccc2S(=O)(=O)C(C)C)n1 [NVP-TAE684]
How it was run: as §1

Vandetanib + Tozasertib = compound: COc1cc2/c(=N/c3ccc(Br)cc3F)nc[nH]c2cc1OCC1CCN(C)CC1 [Vandetanib] + Cc1cc(Nc2cc(N3CCN(C)CC3)nc(Sc3ccc(NC(=O)C4CC4)cc3)n2)n[nH]1 [Tozasertib] (partner 0.1 µM)
How it was run: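 Dosing by pin tool came one day after lung cancer cell lines were seeded in 1536-well plates, using either one drug or a fixed anchor-drug dose plus five library-drug doses (not always all listed) in √10 steps. After 5 days, nuclei were counted on 4× images. Relative viability is treated-well nuclei count divided by vehicle-well nuclei count, and values are medians of duplicate plates.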

## UMC-11
Vandetanib; 0.02 µM
  relative viability: 0.94
Vandetanib; 0.06325 µM
  relative viability: 0.901
Vandetanib; 0.2 µM
  relative viability: 0.9
Vandetanib; 0.6325 µM
  relative viability: 0.91
Vandetanib; 2 µM
  relative viability: 0.964
[1]; 0.005 µM
  relative viability: 0.884
[1]; 0.01581 µM
  relative viability: 1.01
[1]; 0.05 µM
  relative viability: 0.96
[1]; 0.1581 µM
  relative viability: 1.16
[1]; 0.5 µM
  relative viability: 0.967
NVP-TAE684; 0.2 µM
  relative viability: 1.04
NVP-TAE684; 0.6325 µM
  relative viability: 0.876
NVP-TAE684; 2 µM
  relative viability: 0.465
Vandetanib + Tozasertib; first compound 0.02 µM
  relative viability: 0.204
Vandetanib + Tozasertib; first compound 0.06325 µM
  relative viability: 0.187
Vandetanib + Tozasertib; first compound 0.2 µM
  relative viability: 0.175
Vandetanib + Tozasertib; first compound 0.6325 µM
  relative viability: 0.189
Vandetanib + Tozasertib; first compound 2 µM
  relative viability: 0.205
